The source made the active and inactive calls. The calls are words filed in the database; no cut-off is given here.
Tests used:
[1] = molecular target: T1, M-phase inducer phosphatase 2 (Homo sapiens) (UniProt P30305); test: (§1) Inhibition of GST-fused human recombinant Cdc25B2 (275-539) catalytic domain
T1 sequence (whole entry): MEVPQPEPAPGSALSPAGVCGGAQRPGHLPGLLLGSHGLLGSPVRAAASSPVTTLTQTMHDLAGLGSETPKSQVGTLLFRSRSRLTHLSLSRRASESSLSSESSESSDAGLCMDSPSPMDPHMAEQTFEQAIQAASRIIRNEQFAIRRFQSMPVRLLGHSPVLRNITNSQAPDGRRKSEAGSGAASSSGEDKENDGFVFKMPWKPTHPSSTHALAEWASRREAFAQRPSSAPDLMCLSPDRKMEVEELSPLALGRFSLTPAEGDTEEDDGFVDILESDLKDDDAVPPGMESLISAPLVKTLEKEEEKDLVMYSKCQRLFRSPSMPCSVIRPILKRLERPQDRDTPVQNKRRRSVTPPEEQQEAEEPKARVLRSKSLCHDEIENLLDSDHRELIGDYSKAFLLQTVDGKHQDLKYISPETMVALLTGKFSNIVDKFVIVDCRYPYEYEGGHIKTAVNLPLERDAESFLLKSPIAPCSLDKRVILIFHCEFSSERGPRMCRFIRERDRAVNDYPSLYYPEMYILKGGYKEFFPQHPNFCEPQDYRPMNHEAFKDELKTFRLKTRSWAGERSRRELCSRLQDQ

[2] = molecular target: DNA polymerase beta (Homo sapiens, UniProt P06746); test: Inhibition of DNA polymerase beta lyase activity
[3] = test system: A2780; test: Cytotoxicity against human A2780 cells; format: functional, cell-based
[4] = molecular target: T2, M-phase inducer phosphatase 2 (Homo sapiens, UniProt P30305); test: as §1
T2 sequence (P30305 whole entry): T1 sequence (whole entry)

| Activity [1] | Activity [2] | IC50 [4] [µM] | IC50 [2] [µM] | SMILES | Activity [3] | IC50 [3] [µM] |
| --- | --- | --- | --- | --- | --- | --- |
| inactive | inactive |  |  | O=c1ccn([C@H]2C[C@H](O)[C@@H](CO)O2)c(=O)[nH]1 | inactive |  |
|  |  | 92 | 45.2 | C=C1CCC[C@H]2[C@](C)(CC3=C(O)C(=O)C=C(OC)C3=O)[C@@H](C)CC[C@]12C [ILIMAQUINONE] |  | 10.9 |
| inactive | inactive |  |  | C=C1CCC[C@H]2[C@](C)(Cc3cc(C(=O)OC)ccc3OCC=C(C)C)[C@@H](C)CC[C@]12C | inactive |  |
| inactive | inactive |  |  | C=C1CCC[C@H]2[C@](C)(Cc3cc(C(=O)OC)ccc3O)[C@@H](C)CC[C@]12C | inactive |  |

Source: ChEMBL document CHEMBL1148924, “Marine sesquiterpenoids that inhibit the lyase activity of DNA polymerase beta” (J Nat Prod, 2004)
